# How the values were obtained:
# [1] = system: 102 cell lines; assay: Oncolines viability of 120 reference anti-cancer agents; format: cell-based, human
# Protocol: Pearson correlations were calculated between SJ3149 ^10log IC50 values and those of the 120 reference agents, to determine the similarity of compound IC50 fingerprints.
# [2] = system: 102 cell lines; settings: cited from earlier work
# [3] = system: 102 cell lines; assay: Oncolines viability of 120 reference anti-cancer agents; format: cell-based, human; remark: listed apart in the source
smiles,measurement,setting,value
COc1ccc(C2=N[C@@H](c3ccc(Cl)cc3)[C@@H](c3ccc(Cl)cc3)N2C(=O)N2CCNC(=O)C2)c(OC(C)C)c1 [Nutlin-3a],IC50,"[1]; G-361, Melanoma",2.53 µM
same,IC50,"[1]; JAR, Gestational choriocarcinoma",7.25 µM
same,IC50,"[1]; KG-1, Adult acute myeloid leukemia",> 31.6 µM
same,IC50,"[1]; MOLT-4, Adult T acute lymphoblastic leukemia",2.87 µM
same,IC50,"[1]; NCI-H460, Large cell lung carcinoma",4.2 µM
same,IC50,"[1]; RL, Diffuse large B-cell lymphoma, TP53 Mutant",> 31.6 µM
same,IC50,"[1]; SNU-C2B, Cecum adenocarcinoma, TP53 Mutant",> 31.6 µM
same,IC50,"[1]; SR, Anaplastic large cell lymphoma, TP53 Mutant",2.04 µM
same,IC50,"[1]; SW948, Colon adenocarcinoma, TP53 Mutant",> 31.6 µM
same,IC50,"[1]; cell line ACHN, Papillary renal cell carcinoma, TP53 Wild-type",3.3 µM
same,IC50,"[1]; cell line AsPC-1, Pancreatic ductal adenocarcinoma, TP53 Mutant",> 31.6 µM
same,IC50,"[1]; cell line Daoy, Medulloblastoma, TP53 Mutant",> 31.6 µM
same,IC50,"[1]; cell line TT (Hereditary thyroid gland medullary carcinoma), TP53 Wild-type",7.4 µM
same,IC50,"[1]; cell line U-2 OS (Osteosarcoma), TP53 Wild-type",13.3 µM
same,Potency in responsive cell lines,[2],micromolar potency
same,IC50,"[3]; FaDu, Hypopharyngeal squamous cell carcinoma",> 31.6 µM
same,IC50,"[3]; HCT 116, Colon carcinoma",4.55 µM
same,IC50,"[3]; HCT-15, Colon adenocarcinoma",> 31.6 µM
same,IC50,"[3]; HL-60, Adult acute myeloid leukemia",> 31.6 µM
same,IC50,"[3]; HT-1080, Fibrosarcoma",2.06 µM
same,IC50,"[3]; HT, Diffuse large B-cell lymphoma",> 31.6 µM
same,IC50,"[3]; Hs 578T, Invasive ductal carcinoma",> 31.6 µM
same,IC50,"[3]; Hs 746T, Gastric adenocarcinoma",> 31.6 µM
same,IC50,"[3]; Hs 766T, Pancreatic adenocarcinoma",> 31.6 µM
same,IC50,"[3]; HuTu 80, Duodenal adenocarcinoma",3.91 µM
same,IC50,"[3]; J82, Bladder carcinoma",> 31.6 µM
same,IC50,"[3]; Jurkat E6.1, Childhood T acute lymphoblastic leukemia",> 31.6 µM
same,IC50,"[3]; K-562, Chronic myelogenous leukemia",> 31.6 µM
same,IC50,"[3]; KATO III, Signet ring cell gastric adenocarcinoma",29.3 µM
same,IC50,"[3]; KLE, Endometrial adenocarcinoma",> 31.6 µM
same,IC50,"[3]; KU812, Chronic myelogenous leukemia",> 31.6 µM
same,IC50,"[3]; LNCaP FGC, Prostate carcinoma",10.9 µM
same,IC50,"[3]; LS 174T, Colon adenocarcinoma",3.7 µM
same,IC50,"[3]; LS411N, Cecum adenocarcinoma",> 31.6 µM
same,IC50,"[3]; LoVo, Colon adenocarcinoma",10.2 µM
same,IC50,"[3]; MCF7, Invasive ductal carcinoma",11.4 µM
same,IC50,"[3]; MG-63, Osteosarcoma",> 31.6 µM
same,IC50,"[3]; MIA PaCa-2, Pancreatic ductal adenocarcinoma",> 31.6 µM
same,IC50,"[3]; MeWo, Melanoma",> 31.6 µM
same,IC50,"[3]; NCCIT, Testicular embryonal carcinoma",> 31.6 µM
same,IC50,"[3]; NCI-H82, Small cell lung carcinoma",> 31.6 µM
same,IC50,"[3]; NCI-H661, Large cell lung carcinoma",> 31.6 µM
same,IC50,"[3]; OVCAR-3, High grade ovarian serous adenocarcinoma, TP53 Mutant",> 31.6 µM
same,IC50,"[3]; PA-1, Ovarian mixed germ cell tumor, TP53 Wild-type",2.31 µM
same,IC50,"[3]; PC-3, Prostate carcinoma, TP53 Mutant",> 31.6 µM
same,IC50,"[3]; PFSK-1, Primitive neuroectodermal tumor, TP53 Mutant",> 31.6 µM
same,IC50,"[3]; RD, Embryonal rhabdomyosarcoma, TP53 Mutant",> 31.6 µM
same,IC50,"[3]; RKO, Colon carcinoma, TP53 Wild-type",15.7 µM
same,IC50,"[3]; RL95-2, Endometrial adenosquamous carcinoma, TP53 Mutant",24.6 µM
same,IC50,"[3]; RPMI-7951, Melanoma, TP53 Mutant",> 31.6 µM
same,IC50,"[3]; RS4-11, Adult B acute lymphoblastic leukemia, TP53 Wild-type",4.71 µM
same,IC50,"[3]; RT4, Bladder carcinoma, TP53 Wild-type",7.03 µM
same,IC50,"[3]; SHP-77, Small cell lung carcinoma, TP53 Mutant",27.3 µM
same,IC50,"[3]; SJCRH30, Alveolar rhabdomyosarcoma, TP53 Mutant",> 31.6 µM
same,IC50,"[3]; SK-N-AS, Neuroblastoma, TP53 Wild-type",> 31.6 µM
same,IC50,"[3]; SK-N-FI, Neuroblastoma, TP53 Mutant",> 31.6 µM
same,IC50,"[3]; SNU-5, Gastric carcinoma, TP53 Mutant",> 31.6 µM
same,IC50,"[3]; SU-DHL-1, Anaplastic large cell lymphoma, TP53 Mutant",30.7 µM
same,IC50,"[3]; SU-DHL-6, Diffuse large B-cell lymphoma, TP53 Mutant",23.4 µM
same,IC50,"[3]; SUP-T1, Childhood T lymphoblastic lymphoma, TP53 Mutant",> 31.6 µM
same,IC50,"[3]; SW48, Colon adenocarcinoma, TP53 Wild-type",7.63 µM
same,IC50,"[3]; SW480, Colon adenocarcinoma, TP53 Mutant",> 31.6 µM
same,IC50,"[3]; SW620, Colon adenocarcinoma, TP53 Mutant",13.6 µM
same,IC50,"[3]; SW626, Colon adenocarcinoma, TP53 Mutant",> 31.6 µM
same,IC50,"[3]; SW837, Rectal adenocarcinoma, TP53 Mutant",> 31.6 µM
same,IC50,"[3]; SW872, Liposarcoma, TP53 Mutant",> 31.6 µM
same,IC50,"[3]; SW900, Squamous cell lung carcinoma, TP53 Mutant",> 31.6 µM
same,IC50,"[3]; SW982, Biphasic synovial sarcoma, TP53 Wild-type",3.11 µM
same,IC50,"[3]; T24, Bladder carcinoma, TP53 Mutant",> 31.6 µM
same,IC50,"[3]; T98G, Glioblastoma, TP53 Mutant",> 31.6 µM
same,IC50,"[3]; cell line 769-P, Renal cell carcinoma, TP53 Wild-type",5.52 µM
same,IC50,"[3]; cell line 786-O, Renal cell carcinoma, TP53 Mutant",13.4 µM
same,IC50,"[3]; cell line 5637, Bladder carcinoma, TP53 Mutant",> 31.6 µM
same,IC50,"[3]; cell line A375, Amelanotic melanoma, TP53 Wild-type",6.9 µM
same,IC50,"[3]; cell line A388, Squamous cell carcinoma, TP53 Mutant",> 31.6 µM
same,IC50,"[3]; cell line A-172, Glioblastoma, TP53 Wild-type",11.5 µM
same,IC50,"[3]; cell line A-204, Embryonal rhabdomyosarcoma, TP53 Wild-type",3.06 µM
same,IC50,"[3]; cell line A-427, Lung adenocarcinoma, TP53 Wild-type",5.36 µM
same,IC50,"[3]; cell line A-498, Renal cell carcinoma, TP53 Wild-type",5.59 µM
same,IC50,"[3]; cell line A-549, Lung adenocarcinoma, TP53 Wild-type",6.56 µM
same,IC50,"[3]; cell line A-704, Renal cell carcinoma, TP53 Mutant",> 31.6 µM
same,IC50,"[3]; cell line AN3 CA, Endometrial adenocarcinoma, TP53 Mutant",> 31.6 µM
same,IC50,"[3]; cell line AU-565, Breast adenocarcinoma, TP53 Mutant",> 31.6 µM
same,IC50,"[3]; cell line BT-20, Invasive ductal carcinoma, TP53 Mutant",> 31.6 µM
same,IC50,"[3]; cell line BT-549, Invasive ductal carcinoma, TP53 Mutant",> 31.6 µM
same,IC50,"[3]; cell line BxPC-3, Pancreatic ductal adenocarcinoma, TP53 Mutant",> 31.6 µM
same,IC50,"[3]; cell line C-33 A, Cervical squamous cell carcinoma, TP53 Mutant",> 31.6 µM
same,IC50,"[3]; cell line CAL 27, Tongue squamous cell carcinoma, TP53 Mutant",> 31.6 µM
same,IC50,"[3]; cell line CCF-STTG1, Astrocytoma, TP53 Wild-type",7.17 µM
same,IC50,"[3]; cell line CCRF-CEM, Childhood T acute lymphoblastic leukemia, TP53 Mutant",> 31.6 µM
same,IC50,"[3]; cell line COLO 205, Colon adenocarcinoma, TP53 Mutant",> 31.6 µM
same,IC50,"[3]; cell line COLO 829, Cutaneous melanoma, TP53 Wild-type",15.6 µM
same,IC50,"[3]; cell line DB, Diffuse large B-cell lymphoma, TP53 Mutant",28.6 µM
same,IC50,"[3]; cell line DLD-1, Colon adenocarcinoma, TP53 Mutant",> 31.6 µM
same,IC50,"[3]; cell line DU 145, Prostate carcinoma, TP53 Mutant",> 31.6 µM
same,IC50,"[3]; cell line DU4475, Breast carcinoma, TP53 Wild-type",4.62 µM
same,IC50,"[3]; cell line DoTc2 4510, Cervical carcinoma, TP53 Wild-type",> 31.6 µM
same,IC50,"[3]; cell line ES-2, Ovarian clear cell adenocarcinoma, TP53 Mutant",> 31.6 µM
same,IC50,"[3]; cell line TCCSUP (Bladder carcinoma), TP53 Mutant",> 31.6 µM
same,IC50,"[3]; cell line THP-1 (Childhood acute monocytic leukemia), TP53 Mutant",> 31.6 µM
same,IC50,"[3]; cell line U-87 MG (Glioblastoma), TP53 Wild-type",4.37 µM
same,IC50,"[3]; cell line U-118 MG (Astrocytoma), TP53 Mutant",> 31.6 µM
same,IC50,"[3]; cell line VA-ES-BJ (Epithelioid sarcoma), TP53 Wild-type",1.73 µM
